Measurements: patent US8236937B2, “Methods and compositions for the detection and isolation of ligands” (InDanio Bioscience Inc., priority 2005, dated 2012)

Experiments:
[1] = molecular target: T1, GAL4-DHR96 (Drosophila hormone receptor 96) fusion protein (Drosophila melanogaster, UniProt Q24143); assay: Ligand trap GFP reporter screen in transgenic Drosophila embryos (GAL4-DHR96, UAS-GFP); type: in vivo; details: 10^−5 molar vs control media, FIG. 7 panel A
T1 construct: expressed in transfected cells; host or cells: transgenic Drosophila embryos carrying GAL4-DHR96 and a UAS-GFP reporter
T1 sequence (Q24143 483-723 limits assumed): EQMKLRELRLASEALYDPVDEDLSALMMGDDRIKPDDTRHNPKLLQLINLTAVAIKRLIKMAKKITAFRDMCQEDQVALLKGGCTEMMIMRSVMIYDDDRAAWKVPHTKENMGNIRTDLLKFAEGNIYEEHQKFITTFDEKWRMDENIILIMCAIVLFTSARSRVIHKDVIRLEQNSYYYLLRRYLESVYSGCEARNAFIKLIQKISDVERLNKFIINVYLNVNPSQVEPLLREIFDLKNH
Text: CITCO is a component of a small molecule library used to screen for novel DHR96 ligands.

[2] = system: fish glucocorticoid receptor (GR); details: agonist; cited from earlier work

GFP reporter activation / ligand activity at DHR96 [1]	Compound	Transcriptional activity of fish GR in the presence of ligand [2]
first example of a DHR96-specific ligand	Clc1ccc(-c2nc3sccn3c2/C=N/OCc2ccc(Cl)c(Cl)c2)cc1 [CITCO]	–
–	C[C@]12CCC(=O)C=C1CC[C@@H]1[C@@H]2[C@@H](O)C[C@@]2(C)[C@H]1CC[C@]2(O)C(=O)CO [cortisol]	able to induce transcriptional activity
